In patent US9618502B2, “Muscle stem cell or myoblast, method for screening substances that participate in metabolic conversion using same, and pharmaceutical composition comprising substance obtained from said screening method” (TOKYO METROPOLITAN GERIATRIC HOSPITAL AND INSTITUTE OF …, priority 2013, dated 2017):

B1: mouse fibroblast growth factor 21: protein consisting of the amino acid sequence of SEQ ID NO: 1, mouse fibroblast growth factor 21 (protein, listed as Mus musculus)
chain: MEWMRSRVGTLGLWVRLLLAVFLLGVYQAYPIPDSSPLLQFGGQVRQRYLYTDDDQDTEAHLEIREDGTVVGAAHRSPESLLELKALKPGVIQILGVKASRFLCQQPDGALYGSPHFDPEACSFRELLLEDGYNVYQSEAHGLPLRLPQKDSPNQDATSWGPVRFLPMPGLLHEPQDQAGFLPPEPPDVGSSDPLSMVEPLQGRSPSYAS

Tests used:
Type in all cases: cell-based, mouse
[1] = test system: cells expressing the myosin-heavy chain I protein; assay: Screening method of substances involved in a metabolic shift: myotube cells from immortalized muscle stem cells, YFP fluorescence; settings: for area of cells expressing the myosin-heavy chain I protein: two days treatment; for number of myotube cells that generate fluorescence of YFP (myosin-heavy chain I): compared to the negative control
Description: (§1) In this Example, 27 test compounds were tested by the screening method of substances involved in a metabolic shift using the immortalized muscle stem cells (satellite cells) prepared in Example 2.
(§2) The immortalized muscle stem cells (1×10^5) were seeded on a 60 mm dish or the immortalized muscle stem cells (2×10^3) were seeded on a 96 well plate. The cells were cultured in a DMEM containing 20% FBS, bFGF (10 ng/mL), and IFNy (10 ng/mL) at 33° C. for 1 day, and then, cultured in a DMEM containing 5% HS at 37° C. for 3 days. Subsequently, test substances were serially diluted by a DMEM containing 5% horse serum at an appropriate dilution rate, and the diluted substances were added to the dishes respectively. After two days treatment, fluorescences of YFP, Sirius, mCherry, and mCerulean in the living cells were observed using a fluorescence microscope, and the number of cells, which generate the respective fluorescence, was measured.
(§3) In this example, additional test compounds were tested using the immortalized muscle stem cells (satellite cells) prepared in Example 2. The screening method of substances involved in a metabolic shift was performed by repeating a procedure of Example 3.

[2] = test system: cells expressing the myosin-heavy chain IIb protein; assay: Screening method of substances involved in a metabolic shift: myotube cells from immortalized muscle stem cells, mCherry fluorescence; settings: for number of myotube cells that generate fluorescence of mCherry (cells expressing myosin-heavy chain IIb): compared to the negative control; for area of cells expressing the myosin-heavy chain IIb protein: two days treatment
Description: as §1, §2, §3

[3] = test system: immortalized muscle stem cells (satellite cells); assay: Proliferation inhibition screening method using satellite cells; settings: 5 nM, five days of culturing, versus control without rapamycin
Description: The rapamycin was obtained by the metabolic shift screening method in Example 3. In this Example, whether or not the rapamycin can be screened by the proliferation inhibition screening method using satellite cells was examined.
The immortalized muscle stem cells (1×10^4) were seeded on a 35 mm dish. The cells were cultured in a DMEM containing 20% FBS, bFGF (lOng/mL), and IFNγ (10 ng/mL) at 33° C. for 1 day, and then the rapamycin was diluted to a concentration of 5 nM by a DMEM containing 5% FBS, and the diluted rapamycin was added to the dish. The number of cells was counted after five days of culturing. […] The term “Control” means negative control in which the rapamycin was not added. The proliferation of satellite cells was inhibited by adding rapamycin.

Molecule | area of cells expressing the myosin-heavy chain I protein ([1]; 1 nM, negative control 28.4%) | area of cells expressing the myosin-heavy chain I protein ([1]; 10 nM, negative control 28.4%) | area of cells expressing the myosin-heavy chain I protein ([1]; 100 nM, negative control 28.4%) | number of myotube cells that generate fluorescence of YFP (myosin-heavy chain I) [1] | number of myotube cells that generate fluorescence of mCherry (cells expressing myosin-heavy chain IIb) [2] | area of cells expressing the myosin-heavy chain IIb protein ([2]; 100 nM, negative control 44.5%) | area of cells expressing the myosin-heavy chain IIb protein ([2]; 500 nM, negative control 44.5%) | area of cells expressing the myosin-heavy chain I protein ([1]; 4 nM, negative control 25.3%) | proliferation of satellite cells (number of cells) [3] | area of cells expressing the myosin-heavy chain IIb protein ([2]; 4 nM, negative control 41.8%) | area of cells expressing the myosin-heavy chain I protein ([1]; 100 ng/mL, negative control 19.5%) | area of cells expressing the myosin-heavy chain I protein ([1]; 500 ng/mL, negative control 19.5%) | area of cells expressing the myosin-heavy chain IIb protein ([2]; 500 ng/mL, negative control 36.2%)
C[C@H](Cc1ccc2c(c1)OC(C(=O)[O-])(C(=O)[O-])O2)NC[C@H](O)c1cccc(Cl)c1.[Na+].[Na+] [CL316243] | 49.3% | 53.8% | 57.8% | increased | remains static | – | – | – | – | – | – | – | –
N[C@@H](Cc1cc(I)c(Oc2ccc(O)c(I)c2)c(I)c1)C(=O)O [T3, triiodothyronine] | – | – | – | – | increased | 71.3% | 70.0% | – | – | – | – | – | –
CO[C@H]1C[C@@H]2CC[C@@H](C)[C@@](O)(O2)C(=O)C(=O)N2CCCC[C@H]2C(=O)O[C@H]([C@H](C)C[C@@H]2CC[C@@H](O)[C@H](OC)C2)CC(=O)[C@H](C)/C=C(\C)[C@@H](O)[C@@H](OC)C(=O)[C@H](C)C[C@H](C)/C=C/C=C/C=C/1C [rapamycin] | – | – | – | increased | decreased | – | – | 60.9% | inhibited | 8.4% | – | – | –
IL-15: IL-15, one of the test substances | – | – | – | increased | increased | – | – | – | – | – | 35.0% | 36.1% | 53.0%
B1 | 40.6% | 48.0% | 54.9% | increased | remains static | – | – | – | – | – | – | – | –
